Measured values: US12227548B2, “Use of IRE1α-XBP1 signaling pathway biomarkers for modulating immune responses” (Dana-Farber Cancer Institute, Inc., priority 2018, dated 2025)

Legend:
[1] = system: c-Myc promoter activation in Myc^GFP NK cells; assay: c-Myc reporter (Myc^GFP) expression in splenic NK cells treated with cytokines; format: cell-based, mouse; settings: FIG. 9H
Description: Genes were clustered by functional annotation. […] Equal numbers of Ly49H^+ NK cells from wild type and knockout donors were co-transferred into recipient Ly49H-deficient mice 1 day before infection. […] Anti-XBP1s Ab was used and IgG was used as mock control. FIG. 9H show the representative flow cytometric plots (left) and quantification of c-Myc reporter expression. Before assessment, splenic NK cells from c-Myc reporter mice (Myc^GFP) were treated with indicated cytokines for 16 hours, either in the presence or absence of the IRE1 inhibitor (IRE1i) 4μ8c. […] Equal numbers of Ly49H^+ NK cells from wild type and Myc^NK donors were co-transferred into recipient Ly49H− deficient mice 1 day before infection. […] One sample t-test performed on FIG. 9J. Two tailed unpaired Student's t-test performed on FIG. 9D and FIG. 9G. Two-way analysis of variance (ANOVA) with the Sidak post-test performed on FIGS. 9E, and 9I. […] Each column in FIG. 9B is a different mouse. Data are representative of three (FIGS. 9C-9E and FIG. 9G) and two independent repeats (FIGS. 9F, 9H, 9I and 9J). Data were independently repeated three (FIGS. 9D and 9H) and two (FIGS. 9G-9J). N equals 3 or 4 mice/group in FIG. 9D and FIG. 9J; n equals 3 technical replicates/group in FIG. 9G; n equals 3 replicates/treatment in ex vivo culture in FIG. 9H; n equals 5 mice/group in FIG. 9I. […]

[2] = system: Chop and IRE1α/XBP1 pathway in NK cells; assay: Ex vivo incubation of splenic NK cells with tunicamycin, XBP1 splicing assay and qRT-PCR of UPR genes; format: cell-based, mouse; settings: 4 hours ex vivo incubation, FIG. 3A
Source text: The quantitative real time PCR data were presented as relative expression to β-Actin. […] BM NK cells were identified by Lin^−CD122 and splenic NK cells were identified by Lin^−NK1.1^+. Ns indicates “not significant”, * indicates p<0.05, ** indicates p<0.01, *** indicates p<0.001 and **** indicates p<0.0001. Two tailed unpaired Student's t-test performed on FIG. 3A. All error bars show standard deviation. N equals 3 mice/group in FIG. 3A and FIG. 3D. N equals 5 mice/group in FIGS. 3B-3C and FIG. 3F. N equals 10 mice in FIG. 3E. Experiments were independently repeated three (FIGS. 3A-3C and 3E-3F) and two ([…] FIG. 3D) times.
Cells were pre-enriched (Miltenyi Biotec) and then sorted to >95% purity and RNA was isolated using the RNeasy® RNA purification mini (for 5×10^5 cells or beyond) or micro (for <5×10^5 cells) kit (Qiagen) according to the manufacturer's protocol. From purified RNA, cDNA was synthesized using the reverse-transcriptase kit gScript™ cDNA synthesis kit (Quanta Biosciences). Quantitative real time PCR (qRT-PCR) was performed in triplicates in a 384-well plate using Taqman® Probes (Themo Fisher) or SYBR® Green (Quanta Biosciences)-based detection on an ABI QuantStudio™ 6 Flex qRT-PCR machine. For experiments in FIG. 9D, CellDirect™ One-Step qRT-PCR Kit with Rox (Life Technologies) was used according to the manufacturer's instruction. […]

primary human NK cells = assay: Ex vivo expansion of primary human NK cells with IL-2 and IL-15, CTV dilution; format: cell-based
Description: Equal numbers of NK cells from wild-type and IRE1^NK donors were labelled with cell proliferation tracing dye CTV, and then co-transferred into lymphocyte-lacking recipient Rag2-/-Il2rg-/- mice. Flow cytometric evaluation of NK cell expansion and proliferation was performed in the spleen of recipient mice at day 3-5 after transfer. […] IRE1^NK and IRE1^f/f NK cells from littermate animals were pre-labeled with CTV and cultured ex vivo with IL-2 and IL-15 for the indicated number of days. […] Two-way analysis of variance (ANOVA) with the Sidak post-test performed on FIGS. 7B and 7D. Two tailed unpaired Student's t-test performed on FIG. 7C. One-way analysis of variance (ANOVA) with the Tukey post-test performed on FIG. 7G. Two tailed paired Student's t-test performed on FIGS. 7F, 7I and 7J. All error bars show the standard deviation. Data are representative of three (FIGS. 7B and 7C) and two (FIGS. 7D-7E and 7G-7H) independent repeats. Data in FIGS. 7F, 7I and 7J are pooled from two independent repeats. N equals 2 mice/group in FIG. 7B. N equals 4 mice/group in FIGS. 7C, 7G and 7H. N equals 3 mice/group (and technical duplicates for ex vivo culture) in FIGS. 7D and 7E. N equals 6, 5 and 5 PBMC donors in FIGS. 7F, 7I and 7J. Peripheral blood mononuclear cells (PBMCs) from healthy donors (New York Blood Center) were isolated by density gradient centrifugation with Ficoll (GE Healthcare). […]

human primary NK cells = assay: Metabolic flux assay (oxygen consumption rate) of IL-12 and IL-18 activated human primary NK cells; format: cell-based; settings: IL-12 and IL-18 for 16 hr, inhibitor 5 μM; FIG. 14C
Description: Genes were clustered by functional annotation. c-Myc-regulated genes (Morrish and Hockenbery (2014) Cold Spring Harb. Perspect. Med. 4:a014225) are shown in black text on the right. […] Primary human NK cells isolated from PBMC were incubated with IL-12 and IL-18 for 16 hr, in the presence or absence of the IRE1α inhibitor 4μ8C (5 uM). Approximately 600,000 cells were plated per well, and the data were normalized to total protein quantification. Oligo (Oligomycin, 1 μM), FCCP (carbonyl cyanide-p-(trifluoromethoxy) phenylhydrazone, 1 μM), R (rotenone, 0.5 μM) and A (antimycin, 0.5 μM).
Purified human primary NK cells from healthy PBMC donors were stimulated with human recombinant IL-12 and IL-18 for 16 hr in complete RPMI medium, in the presence or absence of IRE1 inhibitor 4μ8C (5 μM). After incubation, NK cells were collected, thoroughly washed and then subjected to Seahorse analyses using non-buffered XF base medium containing 25 mM glucose, 2 mM L-glutamine, and 1 mM sodium Pyruvate but lacking serum. […] 6×10^5 NK cells were plated and OCR measurements were analyzed on an XFe96 Extracellular Flux Analyzer (Agilent). After basal OCR measurements were obtained, an OCR trace was recorded in response to oligomycin (1 μM), carbonyl cyanide-p-(trifluoromethoxy) phenylhydrazone (FCCP, 1 μM), and rotenone and antimycin (0.5 μM each) following the XF Cell Mito Stress test kit (Agilent). […]

mouse NK cells = assay: Ex vivo expansion of mouse NK cells (Myc^OE and littermate control) with IL-2 and IL-15, CTV dilution; format: cell-based; settings: IL-2 and IL-15 for 3 days, FIG. 15B
Description: FIG. 15A-FIG. 15E show the restoration of c-Myc in the absence of IRE1 rescues the NK cell proliferation defect. […] FIG. 15C-FIG. 15E show WT (Myc^fsf/+ IRE1^f/f Ncr1^Cre−), IRE1^NK (Myc^+/+ IRE1^f/f Ncr1^Cre+) Myc^OE (Myc^fsf/+ IRE1^+/+ Ncr1^Cre+) and Myc^OE IRE1^NK (Myc^fsf/+ IRE1^f/f Ncr1^Cre+) NK cells pre-labeled with CTV and cultured ex vivo with IL-2 and IL-15. […] P values are as indicated; ns=not significant. One sample t-test is performed on FIG. 15A. One-way analysis of variance (ANOVA) with the Tukey post-test is performed on FIGS. 15C-15E. All error bars are s.e.m. N=5 mice/group in FIG. 15A, n=2 mice/group in FIG. 15B and n=4 mice/group in FIGS. 15C-15E. […] Experiments in FIGS. 15B-15E were independently repeated three times.
For FIG. 1E, ˜2×10^5 sorted splenic NK cells were stimulated for 16 hr in complete RPMI containing 10% FBS with recombinant mouse IL-2 ([…]; BioLegend), either in the presence or absence of IL-12 (20 ng/ml; Peprotech) and IL-18 (10 ng/ml; R&D Systems). For ex vivo NK cell expansion experiments, 2.5×10^5 sorted NK cells (>97% purity) were stimulated in RPMI supplemented with 10% FBS, penicillin-streptomycin, L-glutamine and β-mercaptoethanol, and with recombinant mouse IL-2 (10 ng/ml; R&D Systems) and IL-15/15R (40 ng/ml; eBioscience) re-applied every other day. […]

IL-15: recombinant cytokine IL-15
c-Myc reporter GFP ([1]; Myc^GFP NK cells, 16 hours, in the absence of 4μ8c): c-Myc reporter GFP was induced

tunicamycin
Chop expression [2]: strongly triggered Chop expression | IRE1α/XBP1 pathway [2]: upregulation of the IRE1α/XBP1 pathway

Cc1cc(=O)oc2c(C=O)c(O)ccc12 [4μ8c, 8-formyl-7-hydroxy-4-methylcoumarin]
proliferation of CD56^bright versus CD56^dim NK cells (primary human NK cells; IL-2 and IL-15, day 6, FIG. 7I): primarily hindered the proliferation of CD56^bright NK cells | proliferation of primary human NK cells (primary human NK cells; cultured in IL-2 and IL-15, 5 μM inhibitor vs DMSO, day 6, FIG. 7F): significant reduction in proliferation | levels of OXPHOS (basal OCR) (human primary NK cells): significantly decreased levels of OXPHOS | maximal respiration rate (human primary NK cells): reduced maximal respiration rate | c-Myc reporter GFP induction under IRE1α blockade ([1]; Myc^GFP NK cells stimulated with IL-15, or IL-12 and IL-18, 16 hours): GFP induction was largely impeded | proliferation of NK cells from Myc^OE mice (mouse NK cells; inhibitor 5 μM vs DMSO): proliferated to a comparable extent as in the DMSO-treated control group | proliferation of NK cells from WT littermates (mouse NK cells; inhibitor 5 μM): impaired in proliferation
